Measured values as given in patent publication US8653096B2, “Chemokine receptor antagonists and methods of use thereof” (Millennium Pharmaceuticals, Inc., priority 2001, dated 2014).

Target: T1, RANTES/MIP-1α chemokine receptor (CCR1) in THP-1 cell membranes (Homo sapiens, UniProt P32246)
T1 construct: Membranes were prepared from THP-1 cells (ATCC #TIB202); host or cells: THP-1 cells (membrane preparation)
T1 sequence (P32246 1-355): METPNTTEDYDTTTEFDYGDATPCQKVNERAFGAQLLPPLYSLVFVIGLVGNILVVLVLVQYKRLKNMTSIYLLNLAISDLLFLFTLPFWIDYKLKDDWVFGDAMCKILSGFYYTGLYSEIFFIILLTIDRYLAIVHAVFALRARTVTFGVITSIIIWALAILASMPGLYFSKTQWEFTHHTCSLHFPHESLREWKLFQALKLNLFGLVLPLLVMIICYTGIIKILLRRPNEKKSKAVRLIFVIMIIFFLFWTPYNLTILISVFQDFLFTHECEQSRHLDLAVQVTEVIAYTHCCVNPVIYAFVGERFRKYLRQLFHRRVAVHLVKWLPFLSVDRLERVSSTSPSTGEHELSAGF
Assay: Receptor binding assay: 125I-RANTES or 125I-MIP-1α binding to THP-1 cell membranes
Conditions: for IC50: inhibitor concentration required for 50% inhibition of specific binding, 125I-RANTES or 125I-MIP-1α as ligand, THP-1 cell membranes, read-out: IC50; for relative activity of resolved enantiomers: enantiomers resolved from the racemate on ChiralPak AD, test not named

Compound	IC50 [µM]	relative activity of resolved enantiomers
4-(4-Cyanophenyl)-1-[3-(5,11-dihydro-7-methoxy[1]benzoxepino[2,3-b]pyridin-5-ylidene)propyl]piperidin-4-ol [Example 141]	< 1	–
4-(5-Chloro-2-keto-1-benzimidazolinyl)-1-[3-(5,11-dihydro-7-methoxy[1]benzoxepino[2,3-b]pyridin-5-ylidene)propyl]piperidine [Example 85]	< 1	–
4-(5-Chloropyridin-2-yl)-1-[3-(5,11-dihydro-7-methoxy[1]benzoxepino[2,3-b]pyridin-5-ylidene)propyl]piperidin-4-ol [Example 83]	< 1000	–
4-(7-Chloro-1,2-benzisoxazol-3-yl)-1-[3-(5,11-dihydro-7-methoxy[1]benzoxepino[2,3-b]pyridin-5-ylidene)propyl]piperidine [Example 185]	< 1000	–
4-(7-Chloroindol-3-yl)-1-[3-(5,11-dihydro-7-methoxy[1]benzoxepino[2,3-b]pyridin-5-ylidene)propyl]-1,2,3,6-tetrahydropyridine [Example 195]	< 10	–
4-(7-Chloroindol-3-yl)-1-[3-(5,11-dihydro-7-methoxy[1]benzoxepino[2,3-b]pyridin-5-ylidene)propyl]piperidine [Example 186]	< 1	–
4-(p-Chloroanilino)-1-[3-(5,11-dihydro-7-methoxy[1]benzoxepino[2,3-b]pyridin-5-ylidene)propyl]piperidine [Example 86]	> 10	–
4-Azido-4-(4-chlorophenyl)-1-[3-(5,11-dihydro-7-methoxy[1]benzoxepino[2,3-b]pyridin-5-ylidene)propyl]piperidine [Example 187]	< 1	–
4-Benzyl-1-[3-(5,11-dihydro-7-methoxy[1]benzoxepino[2,3-b]pyridin-5-ylidene)propyl]piperidin-4-ol [Example 62]	< 10	–
4-Cyano-1-[3-(5,11-dihydro-7-methoxy[1]benzoxepino[2,3-b]pyridin-5-ylidene)propyl]-4-phenylpiperidine [Example 63]	< 10	–
5-Chloro-1′-[3-(5,11-dihydro-7-(2-methoxyethyl)oxy[1]benzoxepino[2,3-b]pyridin-5-ylidene)propyl]spiro[isobenzofuran-1(3H), 4′-piperidine] [Example 197]	< 1	–
5-Chloro-1′-[3-(5,11-dihydro-7-methoxy[1]benzoxepino[2,3-b]pyridin-5-ylidene)propyl]spiro[isobenzofuran-1(3H), 4′-piperidine] [Example 91]	< 1	–
8-[3-(5,11-Dihydro-7-methoxy[1]benzoxepino[2,3-b]pyridin-5-ylidene)propyl]-1-phenyl-1,3,8-triazaspiro[4,5]decan-4-one [Example 69]	< 1	–
CC(C)(O)c1ccc2c(c1)C(=CCCN1CC[C@](O)(c3ccc(Cl)cc3)[C@H](C#N)C1)c1cccnc1CO2 (relative stereo) [Example 479, Trans-4-(4-Chloro-phenyl)-4-hydroxy-1-{3-[7-(1-hydroxyl-1-methyl-ethyl)-11H-10-oxa-1-aza-dibenzo[a,d]cyclohepten-5-ylidene]-propyl}-piperidin-3-carbonitrile]	< 1	–
CC(C)(O)c1ccc2c(c1)C(=CCCN1CC[C@@](O)(c3ccc(Cl)cc3)[C@H](C#N)C1)c1cccnc1CO2 (relative stereo) [Example 480, Cis-4-(4-Chloro-phenyl)-4-hydroxy-1-{3-[7-(1-hydroxyl-1-methyl-ethyl)-11H-10-oxa-1-aza-dibenzo[a,d]cyclohepten-5-ylidene]-propyl}-piperidin-3-carbonitrile]	< 1	–
CC(C)(O)c1ccc2c(c1)C(=CCCN1CCC(O)(c3ccc(Cl)cc3)C(C)(CO)C1)c1cccnc1CO2 (single isomer, unassigned) [Example 483-1, 4-(4-Chloro-phenyl)-3-hydroxymethyl-1-{3-[7-(hydroxyl-1-methyl-ethyl)-11H-10-oxa-1-aza-dibenzo[a,d]cyclohepten-5-ylidene]-propyl}-3-methyl-piperidine-4-ol]	< 1	more active enantiomer
CC(C)(O)c1ccc2c(c1)C(=CCCN1CCC(O)(c3ccc(Cl)cc3)C(C)(CO)C1)c1cccnc1CO2 (single isomer, unassigned) [Example 483-2, 4-(4-Chloro-phenyl)-3-hydroxymethyl-1-{3-[7-(hydroxyl-1-methyl-ethyl)-11H-10-oxa-1-aza-dibenzo[a,d]cyclohepten-5-ylidene]-propyl}-3-methyl-piperidine-4-ol]	< 10	less active enantiomer

Compound	IC50 [µM]	relative activity of resolved enantiomers
CCN(Cc1ccc(Cl)cc1)CC1CCN(CCC=C2c3cc(C(C)(C)O)ccc3OCc3ncccc32)C1 (stereo in doubt) [Example 526, (R)-2-{5-[3-(3-{[(4-Chloro-benzyl)-ethyl-amino]-methyl}-pyrrolidin-1-yl)-propylidene]5,11-dihydro-10-oxa-1-aza-dibenzo[a,d]cyclohepten-7-yl}-propan-2-ol]	< 1	–
OC1(c2ccc(Cl)cc2)CCN(CCC=C2c3ccccc3CCc3ccccc32)CC1 [Example 1, 4-(4-Chlorophenyl)-1-[3-(10,11-dihydro-5H-dibenzo[a,d]cycloheptene-5-ylidene)propyl]piperidin-4-ol]	< 1	–
OC1(c2ccc(Cl)cc2)CCN(CCC=C2c3ccccc3COc3ccccc32)CC1 [Example 2, 4-(4-Chlorophenyl)-1-[3-(6,11-dihydrodibenz[b,e]oxepin-11-ylidene)propyl]piperidin-4-ol]	< 1	–
OC1(c2ccc(Cl)cc2)CCN(CCC=C2c3ccccc3CSc3ccccc32)CC1 [Example 8, 4-(4-Chlorophenyl)-1-[3-(6,11-dihydro-dibenz[b,e]thiepin-11-ylidene)propyl]piperidin-4-ol]	< 1	–
O=C1c2ccccc2C(=CCCN2CCC(O)(c3ccc(Cl)cc3)CC2)c2ccccc2N1Cc1ccccc1 [Example 12, 1-[3-(5-Benzyl-6,11-dihydro-6-oxo-5H-dibenz[b,e]azepin-11-ylidene)propyl]-4-(4-chlorophenyl)-piperidin-4-ol]	< 1	–
O=C(O)CN1C(=O)c2ccccc2C(=CCCN2CCC(O)(c3ccc(Cl)cc3)CC2)c2ccccc21 [Example 17, 1-[3-(5-Carboxymethyl-6,11-dihydro-6-oxo-5H-dibenz[b,e]azepin-11-ylidene)propyl]-4-(4-chlorophenyl)-piperidin-4-ol]	< 10	–
CCOC(=O)CN1C(=O)c2ccccc2C(=CCCN2CCC(O)(c3ccc(Cl)cc3)CC2)c2ccccc21 [Example 18, 4-(4-Chlorophenyl)-1-[3-(6,11-dihydro-5-ethoxycarbonymethyl-6-oxo-5H-dibenz[b,e]azepin-11-ylidene)propyl]piperidin-4-ol]	< 1	–
CN1C(=O)c2ccccc2C(=CCCN2CCC(O)(c3ccc(Cl)cc3)CC2)c2ccccc21 [Example 19, 4-(4-Chlorophenyl)-1-[3-(6,11-dihydro-5-methyl-6-oxo-5H-dibenz[b,e]azepin-11-ylidene)propyl]piperidin-4-ol]	< 1	–
OC1(c2ccc(Cl)cc2)CCN(CCC=C2c3ccccc3C=Cc3ccccc32)CC1 [Example 21, 4-(4-Chlorophenyl)-1-[3-(5H-dibenzo[a,d]cycloheptene-5-ylidene)propyl]piperidin-4-ol]	< 1	–
COC(=O)c1ccc2c(c1)C(=CCCN1CCC(O)(c3ccc(Cl)cc3)CC1)c1ccccc1CO2 [Example 22, 4-(4-Chlorophenyl)-1-[3-(6,11-dihydro-2-methoxycarbonyldibenz[b,e]oxepin-11-ylidene)propyl]piperidin-4-ol]	< 1	–
CCCCOC(=O)c1ccc2c(c1)C(=CCCN1CCC(O)(c3ccc(Cl)cc3)CC1)c1ccccc1CO2 [Example 23, 1-[3-(2-Butoxycarbonyl-6,11-dihydrodibenz[b,e]oxepin-11-ylidene)propyl]-4-(4-chlorophenyl)piperidin-4-ol]	< 1	–
O=C(O)c1ccc2c(c1)C(=CCCN1CCC(O)(c3ccc(Cl)cc3)CC1)c1ccccc1CO2 [Example 24, 1-[3-(2-Carboxyl-6,11-dihydrodibenz[b,e]oxepin-11-ylidene)propyl]-4-(4-chlorophenyl)piperidin-4-ol]	< 10	–
CN(C)C(=O)c1ccc2c(c1)C(=CCCN1CCC(O)(c3ccc(Cl)cc3)CC1)c1ccccc1CO2 [Example 25, 4-(4-Chlorophenyl)-1-[3-(6,11-dihydro-2-dimethylaminocarbonyldibenz[b,e]oxepin-11-ylidene)propyl]piperidin-4-ol]	< 1	–
OCc1ccc2c(c1)C(=CCCN1CCC(O)(c3ccc(Cl)cc3)CC1)c1ccccc1CO2 [Example 26, 4-(4-Chlorophenyl)-1-[3-(6,11-dihydro-2-hydroxymethyldibenz[b,e]oxepin-11-ylidene)propyl]piperidin-4-ol]	< 1	–
CC(C)(O)c1ccc2c(c1)C(=CCCN1CCC(O)(c3ccc(Cl)cc3)CC1)c1ccccc1CO2 [Example 27, 4-(4-Chlorophenyl)-1-[3-(6,11-dihydro-2-(1-hydroxy-1-methyl)ethyldibenz[b,e]oxepin-11-ylidene)propyl]piperidin-4-ol]	< 1	–
N#Cc1ccc2c(c1)C(=CCCN1CCC(O)(c3ccc(Cl)cc3)CC1)c1ccccc1CO2 [Example 28, 4-(4-Chlorophenyl)-1-[3-(2-cyano-6,11-dihydrodibenz[b,e]oxepin-11-ylidene)propyl]piperidin-4-ol]	< 1	–
